pEC50: −log10 of the molar value.
These compounds were tested against T1, human TLR7 (Homo sapiens, UniProt Q9NYK1) (assay: HEK293-Blue hTLR7 reporter assay (QUANTI-BLUE, SEAP readout)). Conditions: HEK-Blue-hTLR7 cells, QUANTI-BLUE assay (A1-A76), 24 hrs.
T1 sequence (Q9NYK1 27-1049): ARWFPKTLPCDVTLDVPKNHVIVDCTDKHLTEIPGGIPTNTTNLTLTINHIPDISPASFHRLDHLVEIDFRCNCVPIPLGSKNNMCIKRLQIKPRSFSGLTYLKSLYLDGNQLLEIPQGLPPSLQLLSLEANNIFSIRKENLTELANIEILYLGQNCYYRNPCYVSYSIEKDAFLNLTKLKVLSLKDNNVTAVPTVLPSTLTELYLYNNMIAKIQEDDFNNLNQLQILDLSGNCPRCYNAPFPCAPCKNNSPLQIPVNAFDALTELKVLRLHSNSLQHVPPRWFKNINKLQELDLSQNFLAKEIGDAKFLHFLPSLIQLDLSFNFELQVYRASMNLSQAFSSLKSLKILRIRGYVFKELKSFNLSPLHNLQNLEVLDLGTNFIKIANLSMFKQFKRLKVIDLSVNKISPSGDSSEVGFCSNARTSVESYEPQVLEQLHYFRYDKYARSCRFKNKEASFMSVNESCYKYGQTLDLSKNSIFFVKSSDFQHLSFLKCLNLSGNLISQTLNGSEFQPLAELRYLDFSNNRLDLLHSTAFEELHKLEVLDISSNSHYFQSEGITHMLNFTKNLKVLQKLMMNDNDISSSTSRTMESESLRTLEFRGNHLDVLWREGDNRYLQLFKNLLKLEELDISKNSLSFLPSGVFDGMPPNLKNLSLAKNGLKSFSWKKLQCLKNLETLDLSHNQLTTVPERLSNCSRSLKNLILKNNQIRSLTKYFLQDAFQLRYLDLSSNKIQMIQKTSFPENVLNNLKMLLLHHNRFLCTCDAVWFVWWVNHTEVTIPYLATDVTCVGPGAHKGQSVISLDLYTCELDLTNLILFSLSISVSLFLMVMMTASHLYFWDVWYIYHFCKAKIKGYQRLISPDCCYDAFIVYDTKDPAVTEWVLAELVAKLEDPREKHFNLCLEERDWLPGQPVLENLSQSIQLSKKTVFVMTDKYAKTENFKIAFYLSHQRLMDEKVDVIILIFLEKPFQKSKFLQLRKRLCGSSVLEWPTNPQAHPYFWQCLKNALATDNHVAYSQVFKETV
Format: cell-based
Parameters: host or cells: HEK293 (HEK-Blue-hTLR7)
Procedure: HEK293-Blue hTLR7 Reporter Assay:
HEK-Blue-hTLR7 cell line (Invivogen, Cat. No. hkb-htlr7) was designed so that the expression of the secreted embryonic alkaline phosphatase (SEAP) was induced by activating NF-κ and AP-1 via stimulating human TLR7 with TLR7 agonists.
HEK-Blue-hTLR7 cells were seeded at a density of 4×10^4 cells/well in a volume of 180 μL in a 96-well plate in DMEM (Cat. No. 11965-092) supplemented with 10% (v/v) heat-inactivated fetal bovine serum (FBS) (Gibco, 10099-1441), 100 U/ml penicillin and 100 μg/ml streptomycin (Gibco, 15140122) containing […], […] and 10% (v/v) heat-inactivated fetal bovine serum. The cells were settled for 5 hrs, then treated with increasing amounts of tested compounds at 37° C. for 24 hrs. Then 20 μL of the supernatant from each well was incubated with 180 uL Quanti-blue substrate solution at 37° C. for 10-30 mins before the activity of the SEAP was determined at 620-655 nm using a spectrophotometer. The EC50 value for each compound was calculated with GraphPad Prism software using the sigmoidal dose-response function.

Compound | pEC50
CCCCOc1nc(N)c2ncc(Cc3ccc(OCCCN)cc3)n2n1 [Compound A31, 7-(4-(3-aminopropoxy)benzyl)-2-butoxyimidazo[2,1-f][1,2,4]triazin-4-amine] | < 5.00
COCCOc1nc(N)c2ncc(Cc3cccc(CN4CCCC4)c3)n2n1 [Compound A17, 2-(2-methoxyethoxy)-7-(3-(pyrrolidin-1-ylmethyl)benzyl)imidazo[2,1-f][1,2,4]triazin-4-amine] | < 5.00
CCCCOc1nc(N)c2ncc(Cc3ccc(CN4CCN(CCCO)CC4)cc3)n2n1 [Compound A71, 3-(4-(4-((4-amino-2-butoxyimidazo[2,1-f][1,2,4]triazin-7-yl)methyl)benzyl)piperazin-1-yl)propan-1-ol] | 5.93
CCCCOc1nc(N)c2ncc(Cc3cccc(CN4CCN(C)CC4)c3)n2n1 [Compound A13, 2-butoxy-7-(3-((4-methylpiperazin-1-yl)methyl)benzyl)imidazo[2,1-f][1,2,4]triazin-4-amine] | < 5.00
CCCCOc1nc(N)c2ncc(Cc3ccc(CN4C[C@@H]5C[C@H]4CN5)cc3)n2n1 [Compound A41, 7-(4-(((1S,4S)-2,5-diazabicyclo[2.2.1]heptan-2-yl)methyl)benzyl)-2-butoxyimidazo[2,1-f][1,2,4]triazin-4-amine] | 5.80
CC(C)COc1nc(N)c2ncc(Cc3cccc(CN4CCCC4)c3)n2n1 [Compound A16, 2-isobutoxy-7-(3-(pyrrolidin-1-ylmethyl)benzyl)imidazo[2,1-f][1,2,4]triazin-4-amine] | < 5.00
Nc1nc(NCc2ccco2)nn2c(Cc3ccc(CN4CCCC4)cc3)cnc12 [Compound A64, N^2-(furan-2-ylmethyl)-7-(4-(pyrrolidin-1-ylmethyl)benzyl)imidazo[2,1-f][1,2,4]triazine-2,4-diamine] | 5.40
CCCCOc1nc(N)c2ncc(Cc3ccc(OCCCN(CC)CC)cc3)n2n1 [Compound A29, 2-butoxy-7-(4-(3-(diethylamino)propoxy)benzyl)imidazo[2,1-f][1,2,4]triazin-4-amine] | 5.58
CCCCOc1nc(N)c2ncc(Cc3cccc(CN4CCCC4)c3)n2n1 [Compound A11, 2-butoxy-7-(3-(pyrrolidin-1-ylmethyl)benzyl)imidazo[2,1-f][1,2,4]triazin-4-amine] | < 5.00
CCCCOc1nc(N)c2ncc(Cc3ccc(CCN4CCCC4)cc3)n2n1 [Compound A42, 2-butoxy-7-(4-(2-(pyrrolidin-1-yl)ethyl)benzyl)imidazo[2,1-f][1,2,4]triazin-4-amine] | 5.86
CCCCOc1nc(N)c2ncc(Cc3ccc(OC)cn3)n2n1 [Compound A50, 2-butoxy-7-((5-methoxypyridin-2-yl)methyl)imidazo[2,1-f][1,2,4]triazin-4-amine] | < 5.00
CCCCOc1nc(N)c2ncc(Cc3ccc(CN4CCOCC4)cc3)n2n1 [Compound A3, 2-butoxy-7-(4-(morpholinomethyl)benzyl)imidazo[2,1-f][1,2,4]triazin-4-amine] | < 5.00
CCCCOc1nc(N)c2ncc(Cc3ccc(OC4C[C@H]5CC[C@@H](C4)N5)cc3F)n2n1 (stereo partly drawn) [Compound A38, 7-(4-(((1R,5S)-8-azabicyclo[3.2.1]octan-3-yl)oxy)-2-fluorobenzyl)-2-butoxyimidazo[2,1-f][1,2,4]triazin-4-amine] | 5.73
CCCCOc1nc(N)c2ncc(C(O)c3ncccc3OC)n2n1 (stereo not shown) [Compound A56, (4-amino-2-butoxyimidazo[2,1-f][1,2,4]triazin-7-yl)(3-methoxypyridin-2-yl)methanol] | < 5.00
CCCCOc1nc(N)c2ncc(Cc3ccc(OCCCN(C)C)cc3F)n2n1 [Compound A36, 2-butoxy-7-(4-(3-(dimethylamino)propoxy)-2-fluorobenzyl)imidazo[2,1-f][1,2,4]triazin-4-amine] | 6.06
CCCCOc1nc(N)c2ncc(Cc3ccc(CN4CCN(C)CC4)cc3)n2n1 [Compound A6, 2-butoxy-7-(4-((4-methylpiperazin-1-yl)methyl)benzyl)imidazo[2,1-f][1,2,4]triazin-4-amine] | 5.82
Nc1nc(N)c2ncc(Cc3ccc(CN4CCCC4)cc3)n2n1 [Compound A52, 7-(4-(pyrrolidin-1-ylmethyl)benzyl)imidazo[2,1-f] [1,2,4]triazine-2,4-diamine] | < 5.00
CCCCOc1nc(N)c2ncc(Cc3ccc(OCCCN(C)C)cc3)n2n1 [Compound A2, 2-butoxy-7-(4-(3-(dimethylamino)propoxy)benzyl)imidazo[2,1-f][1,2,4]triazin-4-amine] | 6.04
CCCCOc1nc(N)c2ncc(Cc3ccc(OCCCN(C)C)nc3)n2n1 [Compound A32, 2-butoxy-7-((6-(3-(dimethylamino)propoxy)pyridin-3-yl)methyl)imidazo[2,1-f][1,2,4]triazin-4-amine] | 6.06
CCCCOc1nc(N)c2ncc(Cc3ccc(Cn4cncn4)cc3)n2n1 [Compound A62, 7-(4-((1H-1,2,4-triazol-1-yl)methyl)benzyl)-2-butoxyimidazo[2,1-f][1,2,4]triazin-4-amine] | < 5.00
Nc1nc(OCCCC(F)(F)F)nn2c(Cc3cccc(CN4CCCC4)c3)cnc12 [Compound A18, 7-(3-(pyrrolidin-1-ylmethyl)benzyl)-2-(4,4,4-trifluorobutoxy)imidazo[2,1-f][1,2,4]triazin-4-amine] | < 5.00
CCCCOc1nc(N)c2ncc(Cc3cccc(CN4CCOCC4)c3)n2n1 [Compound A12, 2-butoxy-7-(3-(morpholinomethyl)benzyl)imidazo[2,1-f][1,2,4]triazin-4-amine] | < 5.00
CCCCOc1nc(N)c2ncc(Cc3cccc(-c4ccc(CN5CCCC5)cc4)c3)n2n1 [Compound A25, 2-butoxy-7-((4′-(pyrrolidin-1-ylmethyl)-[1,1′-biphenyl]-3-yl)methyl)imidazo[2,1-f][1,2,4]triazin-4-amine] | < 5.00
CCCCOc1nc(N)c2ncc(Cc3ccc(CN4CCCCC4)cc3)n2n1 [Compound A5, 2-butoxy-7-(4-(piperidin-1-ylmethyl)benzyl)imidazo[2,1-f][1,2,4]triazin-4-amine] | 5.90
CCCCOc1nc(N)c2ncc(Cc3ncccc3OC)n2n1 [Compound A55, 2-butoxy-7-((3-methoxypyridin-2-yl)methyl)imidazo[2,1-f][1,2,4]triazin-4-amine] | < 5.00
Cc1cc(COc2nc(N)c3ncc(Cc4ccc(CN5CCCC5)cc4)n3n2)no1 [Compound A48, 2-((5-methylisoxazol-3-yl)methoxy)-7-(4-(pyrrolidin-1-ylmethyl)benzyl)imidazo[2,1-f][1,2,4]triazin-4-amine] | < 5.00
CCCCOc1nc(N)c2ncc(Cc3ccc(CN4CCCC4)cc3)n2n1 [Compound A1, 2-butoxy-7-(4-(pyrrolidin-1-ylmethyl)benzyl)imidazo[2,1-f][1,2,4]triazin-4-amine] | 6.05
CCCCOc1nc(N)c2ncc(Cc3cccc(OC)n3)n2n1 [Compound A51, 2-butoxy-7-((6-methoxypyridin-2-yl)methyl)imidazo[2,1-f][1,2,4]triazin-4-amine] | < 5.00

Same assay, conditions: HEK-Blue-hTLR7 cells, QUANTI-BLUE assay (C1-C6), 24 hrs

Compound | pEC50
CCCCOc1nc(N)n2ncc(Cc3cccc(CN4CCCC4)c3)c2n1 [Compound C1, 2-butoxy-8-(3-(pyrrolidin-1-ylmethyl)benzyl)pyrazolo[1,5-a][1,3,5]triazin-4-amine] | < 5.00
CCCCOc1nc(N)n2ncc(Cc3ccc(CN4CCCC4)cc3)c2n1 [Compound C2, 2-butoxy-8-(4-(pyrrolidin-1-ylmethyl)benzyl)pyrazolo[1,5-a][1,3,5]triazin-4-amine] | < 5.00
CCCCOc1cc2c(Cc3cnc(N4CCNCC4)c(Cl)c3)cnn2c(N)n1 [Compound C3, 5-butoxy-3-((5-chloro-6-(piperazin-1-yl)pyridin-3-yl)methyl)pyrazolo[1,5-c]pyrimidin-7-amine] | < 5.00
